Laboratory results: patent US6251893A, “Bicyclic piperidine and piperazine compounds having 5-HT6 receptor affinity” (NPS Allelix Corp., priority 1998, dated 2001)

Key:
5HT2C receptor = biological target: T1, 5HT2C receptor (Homo sapiens, UniProt P28335); assay: Binding to 5HT2C receptor (selectivity); settings: selectivity versus 5-HT6; read-out: percent inhibition for the 5HT2C receptor
T1 sequence (P28335 33-458): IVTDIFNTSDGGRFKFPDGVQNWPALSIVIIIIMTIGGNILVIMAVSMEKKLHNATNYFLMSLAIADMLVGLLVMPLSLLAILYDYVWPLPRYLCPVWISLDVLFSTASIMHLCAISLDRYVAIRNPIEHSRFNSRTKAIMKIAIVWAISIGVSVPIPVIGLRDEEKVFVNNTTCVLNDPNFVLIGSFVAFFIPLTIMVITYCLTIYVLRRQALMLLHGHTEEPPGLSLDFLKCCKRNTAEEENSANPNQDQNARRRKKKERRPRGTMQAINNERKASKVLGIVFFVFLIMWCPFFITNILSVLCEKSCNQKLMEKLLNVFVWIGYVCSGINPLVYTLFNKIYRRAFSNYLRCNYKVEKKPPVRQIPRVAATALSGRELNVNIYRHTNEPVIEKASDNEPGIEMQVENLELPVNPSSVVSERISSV

5-HT7 receptor = 5-HT7 receptor (Homo sapiens, UniProt P34969); assay: Binding to 5-HT7 receptor (selectivity); design: dose or concentration left out as unconfirmed; settings: selectivity versus 5-HT6; read-out: percent inhibition for the 5-HT7 receptor
Sequence of 5-HT7 receptor (P34969 whole entry): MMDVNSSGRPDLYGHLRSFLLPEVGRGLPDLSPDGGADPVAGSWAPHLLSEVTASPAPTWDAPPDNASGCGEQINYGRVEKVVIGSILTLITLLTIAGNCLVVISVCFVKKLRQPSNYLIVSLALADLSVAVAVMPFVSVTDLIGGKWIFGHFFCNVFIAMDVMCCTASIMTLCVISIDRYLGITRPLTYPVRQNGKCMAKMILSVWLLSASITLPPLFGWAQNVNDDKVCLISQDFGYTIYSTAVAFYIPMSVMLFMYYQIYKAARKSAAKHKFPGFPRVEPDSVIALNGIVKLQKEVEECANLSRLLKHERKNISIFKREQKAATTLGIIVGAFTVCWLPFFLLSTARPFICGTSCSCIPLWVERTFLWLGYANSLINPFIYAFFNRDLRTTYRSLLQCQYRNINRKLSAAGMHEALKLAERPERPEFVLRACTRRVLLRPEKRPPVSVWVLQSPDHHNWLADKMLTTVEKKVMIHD

human 5HT6 receptor = human 5HT6 receptor (Homo sapiens, UniProt P50406); assay: Binding affinity for the 5-HT6 receptor (3H-LSD displacement); design: expressed in transfected cells; settings: 100 nM test compound; 3H-LSD (2 nM); 60 minute incubation at 37° C; read-out: percent inhibition of radioligand binding for the 5-HT6 receptor
Sequence of human 5HT6 receptor (P50406 whole entry): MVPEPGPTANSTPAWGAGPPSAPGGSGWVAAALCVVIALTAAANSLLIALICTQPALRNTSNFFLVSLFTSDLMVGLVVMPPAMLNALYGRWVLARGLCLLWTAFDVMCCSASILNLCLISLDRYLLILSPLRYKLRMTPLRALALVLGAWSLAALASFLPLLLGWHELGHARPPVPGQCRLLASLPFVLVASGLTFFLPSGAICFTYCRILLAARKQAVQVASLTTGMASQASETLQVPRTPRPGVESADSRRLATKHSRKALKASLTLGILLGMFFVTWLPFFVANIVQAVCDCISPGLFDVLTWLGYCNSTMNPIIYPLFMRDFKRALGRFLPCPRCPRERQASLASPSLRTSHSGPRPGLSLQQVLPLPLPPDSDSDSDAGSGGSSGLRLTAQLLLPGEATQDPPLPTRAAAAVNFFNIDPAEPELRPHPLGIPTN
Description: Binding Affinity for the 5-HT6 Receptor
The assay protocol generally entailed the incubation of membranes prepared from cells expressing the 5-HT6 receptor with ^3 H-LSD (2 nM). Increasing levels of the test compound were incubated with the radioligand and the membrane homogenates prepared from the recombinant cells. After a 60 minute incubation at 37° C., the incubation was terminated by vacuum filtration. The filters were washed with buffer and the filters were counted for radioactivity using liquid scintillation spectrometry. […] Concentrations ranging from 10^-11 M to 10^-5 M of the test compound were evaluated. […] Affinity for the 5-HT6 receptor is expressed as the amount (in percent) of binding of the radioligand that is inhibited in the presence of 100 nM of test compound. A greater percent inhibition indicates greater affinity for the 5-HT6 receptor.

5-HT2A receptor = 5-HT2A receptor (Homo sapiens, UniProt P28223); assay: Binding to 5-HT2A receptor (selectivity); design: dose or concentration left out as unconfirmed; settings: selectivity versus 5-HT6; read-out: percent inhibition for the 5-HT2A receptor
Sequence of 5-HT2A receptor (P28223 whole entry): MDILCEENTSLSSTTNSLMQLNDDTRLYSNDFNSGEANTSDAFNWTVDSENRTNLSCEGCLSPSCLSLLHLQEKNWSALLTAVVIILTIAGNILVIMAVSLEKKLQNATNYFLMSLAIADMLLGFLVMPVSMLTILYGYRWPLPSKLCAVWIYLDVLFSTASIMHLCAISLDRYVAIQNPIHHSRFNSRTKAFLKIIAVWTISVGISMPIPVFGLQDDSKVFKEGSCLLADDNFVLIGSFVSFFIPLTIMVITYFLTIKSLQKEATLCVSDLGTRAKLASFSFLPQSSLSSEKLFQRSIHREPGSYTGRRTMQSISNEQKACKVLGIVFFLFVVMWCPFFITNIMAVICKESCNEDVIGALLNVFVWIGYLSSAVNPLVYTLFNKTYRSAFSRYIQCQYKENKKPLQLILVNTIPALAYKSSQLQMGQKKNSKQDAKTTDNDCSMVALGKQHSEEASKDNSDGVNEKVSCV

Row | SMILES | inhibition at 0.1 µM (5HT2C receptor) [%] | inhibition (5-HT7 receptor) [%] | inhibition at 0.1 µM (human 5HT6 receptor) [%] | inhibition (5-HT2A receptor) [%]
1 | COc1ccc(S(=O)(=O)n2cc(C3=CCN4CCCC4C3)c3cc(F)ccc32)cc1 (racemic) [Example 6ee, 5-Fluoro-3-[(8a-R,S)-1,2,3,5,8,8a-hexahydro-7-indolizinyl]-1-(4-methoxyphenylsulfonyl)indole] | < 20 | < 20 | > 80 | < 20
2 | O=S(=O)(c1ccc(Cl)cc1)n1cc(N2CCN3CCCCC3C2)c2ccccc21 (racemic) [Example 6p, 1-(4-Chlorophenylsulfonyl)-3-[(6-R,S)-1,4-diaza[4.4. 0]bicyclodecan-4-yl]indole] | < 20 | < 20 | > 80 | < 20
3 | Cc1cccc(-n2cc(C3CCN4CCCC4C3)c3cc(F)ccc32)c1 (racemic) [Example 9a, 5-Fluoro-3-[(7-R,S)(8a-R,S)-octahydro-7-indolizinyl]-1-(3-methylphenyl)indole] |  |  | > 80 | 
4 | Cc1ccc(S(=O)(=O)n2cc(N3CCN4CCCC4C3)c3ccccc32)cc1 (racemic) [Example 6k, 3-[(6-R,S)-1,4-Diaza[4.3. 0]bicyclonon-4-yl]-1-(4-methylphenylsulfonyl)indole] |  |  | > 80 | 
5 | COc1ccc2c(c1)c(C1=CCN3CCCC3C1)cn2S(=O)(=O)c1ccc2ccccc2c1 (racemic) [Example 6oo, 5-Methoxy-3-[(8a-R,S)-1,2,3,5,8,8a-hexahydro-7-indolizinyl]-2-naphthalenesulfonylindole] | < 20 | < 20 | > 80 | < 20
6 | O=S(=O)(c1ccc(Cl)cc1)n1cc(N2CCN3CCCC3C2)c2ccccc21 (racemic) [Example 6e, 1-(4-Chlorophenylsulfonyl)-3-[(6-R,S)-1,4-diaza[4.3. 0]bicyclonon-4-yl]indole] |  |  | > 80 | 
7 | O=S(=O)(c1ccccc1)n1cc(N2CCN3CCCCC3C2)c2ccccc21 (racemic) [Example 6u, 3-[(6-R,S)-1,4-Diaza[4.4.0]bicyclodecan-4-yl]-1-(phenylsulfonyl)indole] | < 20 | < 20 | > 80 | < 20
8 | COc1ccc(S(=O)(=O)n2cc(N3CCN4CCCC4C3)c3ccccc32)cc1 (racemic) [Example 6g, 3-[(6-R,S)-1,4-Diaza[4.3. 0]bicyclonon-4-yl]-1-(4-methoxyphenylsulfonyl)indole] | < 20 | < 20 | > 80 | < 20
9 | O=S(=O)(c1cccc2ccccc12)n1cc(N2CCN3CCCCC3C2)c2ccccc21 (racemic) [Example 6m, 3-[(6-R,S)-1,4-Diaza[4.4. 0]bicyclodecan-4-yl]-1-(1-naphthalenesulfonyl)indole] | < 20 | < 20 | > 80 | < 20
10 | O=S(=O)(c1ccc2ccccc2c1)n1cc(N2CCN3CCCCC3C2)c2ccccc21 (racemic) [Example 6l, 3-[(6-R,S)-1,4-Diaza[4.4. 0]bicyclodecan-4-yl]-1-(2-naphthalenesulfonyl)indole] | < 20 | < 20 | > 80 | < 20
11 | O=S(=O)(c1ccc(Cl)cc1)n1cc(C2=CCN3CCCC3C2)c2cc(F)ccc21 (racemic) [Example 6ii, 1-(4-Chlorophenylsulfonyl)-5-fluoro-3-[(8a-R,S)-1,2,3,5,8,8a-hexahydro-7-indolizinyl]indole] | < 20 | < 20 | > 80 | < 20
12 | O=S(=O)(c1cc(Cl)ccc1Cl)n1cc(C2=CCN3CCCC3C2)c2cc(F)ccc21 (racemic) [Example 6hh, 1-(2,5-Dichlorophenylsulfonyl)-5-fluoro-3-[(8a-R,S)-1,2,3,5,8,8a-hexahydro-7-indolizinyl]indole] | < 20 | < 20 | > 80 | < 20
13 | Cc1ccc2c(c1)c(C1=CCN3CCCC3C1)cn2S(=O)(=O)c1ccc2ccccc2c1 (racemic) [Example 6rr, 5-Methyl-3-[(8a-R,S)-1,2,3,5,8,8a-hexahydro-7-indolizinyl]-2-naphthalenesulfonylindole] | < 20 | < 20 | > 80 | < 20
14 | O=S(=O)(c1ccc2ccccc2c1)n1cc(C2=CCN3CCCC3C2)c2cc(F)cc(F)c21 (racemic) [Example 6ll, 5,7-Difluoro-3-[(8a-R,S)-1,2,3,5,8,8a-hexahydro-7-indolizinyl]-2-naphthalenesulfonylindole] | < 20 | < 20 | > 80 | < 20
15 | O=S(=O)(c1ccc(Br)cc1)n1cc(C2=CCN3CCCC3C2)c2cc(F)ccc21 (racemic) [Example 6bb, 1-(4-Bromophenylsulfonyl)-5-fluoro-3-[(8a-R,S)-1,2,3,5,8,8a-hexahydro-7-indolizinyl]indole] | < 20 | < 20 | > 80 | < 20
16 | Fc1ccc2c(c1)c(C1CCN3CCCC3C1)cn2Cc1ccccc1 (single isomer, unassigned; isomer i) [Example 10h, 1-Benzyl-5-fluoro-3-[(7R or 7S)(8a-R,S)-octahydrohydro-7-indolizinyl]indole, Isomer I] |  |  | > 80 | 
17 | Cc1ccc2c(c1)c(C1=CCN3CCCC3C1)cn2S(=O)(=O)c1ccccc1 (racemic) [Example 6pp, 5-Methyl-3-[(8a-R,S)-1,2,3,5,8,8a-hexahydro-7-indolizinyl]-1-phenylsulfonylindole] | < 20 | < 20 | > 80 | < 20
18 | Cc1ccc(S(=O)(=O)n2cc(N3CCN4CCCCC4C3)c3ccccc32)cc1 (racemic) [Example 6v, 3-[(6-R,S)-1,4-Diaza[4.4. 0]bicyclodecan-4-yl]-1-(4-methylphenylsulfonyl)indole] |  |  | > 80 | 
19 | Cc1ccc(S(=O)(=O)n2nc(N3CCN4CCCC4C3)c3ccccc32)cc1 (racemic) [Example 7a, 3-[(6-R,S)-1,4-Diaza[4.3. 0]bicyclonon-4-yl]-1-(4-methylphenylsulfonyl)indazole] |  |  | > 80 | 
20 | Cc1cccc(S(=O)(=O)n2cc(C3CCN4CCCC4C3)c3cc(F)ccc32)c1 (single isomer, unassigned; isomer i) [Example 10k, 5-Fluoro-1-(3-methylphenylsulfonyl)-3-[(7R or 7S)(8a-R,S)octahydrohydro-7-indolizinyl]lindole, Isomer I] |  |  | > 80 | 
21 | Cc1ccc(S(=O)(=O)n2nc(N3CCN4CCCCC4C3)c3ccccc32)cc1 (racemic) [Example 7b, 3-[(6-R,S)-1,4-Diaza[4.4. 0]bicyclodecan-4-yl]-1-(4-methylphenylsulfonyl)indazole] |  |  | > 80 | 
22 | O=S(=O)(c1ccccc1Br)n1cc(N2CCN3CCCC3C2)c2ccccc21 (racemic) [Example 6i, 1-(2-Bromophenylsulfonyl)-3-[(6-R,S)-1,4-diaza[4.3. 0]bicyclonon-4-yl]indole] |  |  | > 80 | 
23 | O=S(=O)(c1cc(Cl)ccc1Cl)n1cc(C2CCN3CCCC3C2)c2cc(F)ccc21 (single isomer, unassigned; isomer i) [Example 10j, 1-(2,5-Dichlorophenylsulfonyl)-5-Fluoro-3-[(7R or 7S)(8a-R,S)-octahydrohydro-7-indolizinyl]indole, Isomer I] |  |  | > 80 | 
24 | O=S(=O)(c1ccccc1)n1cc(C2=CCN3CCCC3C2)c2cc(OC3CCCCC3)ccc21 (racemic) [Example 10i, 5-Cyclohexyloxy-3-[(8a-R,S)-1,2,3,5,8,8a-hexahydrohydro-7-indolizinyl]-1-phenylsulfonylindole] |  |  | > 80 | 
25 | O=S(=O)(c1ccc(F)cc1)n1cc(N2CCN3CCCC3C2)c2ccccc21 (racemic) [Example 6f, 3-[(6-R,S)-1,4-Diaza[4.3. 0]bicyclonon-4-yl]-1-(4-fluorophenylsulfonyl)indole] |  |  | > 80 | 
26 | O=S(=O)(c1cc(Cl)ccc1Cl)n1cc(N2CCN3CCCC3C2)c2ccccc21 (racemic) [Example 6h, 3-[(6-R,S)-1,4-Diaza[4.3. 0]bicyclonon-4-yl]-1-(2,5-dichlorophenylsulfonyl)indole] |  |  | > 80 | 
